Source: patent US7235533B2, “Compounds and their uses” (Rodaris Pharmaceuticals Limited, priority 2000, dated 2007)

Key:
PDH phosphatase = molecular target: T1, PDH phosphatase (Homo sapiens, UniProt Q9P0J1); test: PDH activation assay; assay type: biochemical; settings: 100 μM compound
T1 sequence (Q9P0J1 72-537): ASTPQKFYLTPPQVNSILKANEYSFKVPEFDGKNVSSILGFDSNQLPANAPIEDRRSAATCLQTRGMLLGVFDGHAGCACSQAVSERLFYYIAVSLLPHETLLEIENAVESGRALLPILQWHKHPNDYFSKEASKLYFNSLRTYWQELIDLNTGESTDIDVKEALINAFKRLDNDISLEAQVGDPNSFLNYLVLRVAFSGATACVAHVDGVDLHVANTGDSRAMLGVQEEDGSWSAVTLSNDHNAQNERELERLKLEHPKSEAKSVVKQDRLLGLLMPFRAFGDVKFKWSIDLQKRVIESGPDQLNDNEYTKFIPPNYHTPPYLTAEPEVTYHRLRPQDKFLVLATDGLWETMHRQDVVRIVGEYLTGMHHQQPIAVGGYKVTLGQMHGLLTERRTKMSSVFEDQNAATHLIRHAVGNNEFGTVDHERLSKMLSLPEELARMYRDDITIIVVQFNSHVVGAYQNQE
Description: (§1) Methods for obtaining A-type and P-type mediators are set out in Caro et al, 1997, and in WO98/11116 and WO98/11117. Protocols for determining characteristic IPG biological activities such as PDH activation, PKA inhibition, acetylCoA activation, fructose-1,6-bis-phosphatase activity and lipogenesis are well known in the art or provided in the experimental section below.
(§2) The compounds of the invention can be tested for one or more the characteristic IPG-P and/or IPG-A activities mentioned above to determine whether they will be suitable for use a IPG mimetics or antagonists. Preferred assays measure the effect of the compounds on PDH phosphatase, PKA or lipogenesis. Protocols for these assays are provided in Caro et al^[14].

PKA = PKA (Homo sapiens, UniProt P17612); test: PKA inhibition assay; assay type: biochemical
Description: as §1, §2

PDH activation (PDH phosphatase)	PKA inhibition (PKA; 0.1 μM compound)	PKA inhibition (PKA; 1.0 μM compound)	PKA inhibition (PKA; 10 μM compound)	Compound
65%	17%	34%	2%	CO[C@H]1[C@H](O)[C@@H](O)[C@@H](O[C@H]2O[C@H](CO)[C@@H](O)[C@H](O)[C@H]2N)[C@H](O)[C@@H]1O [RGL1024, O-(2-amino-2-deoxy-D-glucopyranosyl)-α(1,6)-D-3-O-methyl-chiro-inositol]
14%				NC1C(OC2C(O)C(O)C(O)C(O)C2O)OC(COP(=O)(O)O)C(O)C1O [RGL1023, 1′-D-6-O-(2′-amino-2′-deoxy-6′-phosphate-α-D-glucopyranosyl)-myo-inositol]
38%	14%	15%	12%	COC1C(O)C(O)C(OC2OC(CO)C(O)C(O)C2N)C(O)C1O [RGL1015, O-(2-amino-2-deoxy-D-glucopyranosyl)-β(1,6)-3-O-methyl-chiro-inositol]
	32%		31%	6-O-(2-Ammonio-2-deoxy-β-D-glucopyranosyl)-D-chiro-inositol-1-phosphate [RGL1019]
361%	59%		33%	N[C@H]1[C@@H](O[C@H]2[C@H](O)[C@H](O)[C@H](O)[C@@H](O)[C@@H]2O)O[C@H](CO)[C@@H](O)[C@@H]1OP(=O)(O)O [RGL1029, 1′-D-6-O-(2′-amino-2′-deoxy-3′-phosphate-α-D-glucopyranosyl)-myo-inositol]
132%	18%		10%	N[C@H]1[C@@H](O[C@H]2[C@H](O)[C@H](O)[C@H](O)[C@@H](O)[C@@H]2O)O[C@H](CO)[C@@H](OP(=O)(O)O)[C@@H]1O [RGL1027, 1′-D-6-O-(2′-amino-2′-deoxy-4′-phosphate-α-D-glucopyranosyl)-myo-inositol]
	19%			NC1C(OC2C(O)C(O)C(O)C(O)C2O)OC(CO)C(O)C1O [RGL1018, 6-O-(2-Amino-2-deoxy-β-D-glucopyranosyl)-D-chiro-inositol]
17%	48%	−13%		O-(2-amino-2deoxy-D-galactopyranosyl)-α(1,6)-D-3-O-methyl-chiro-inositol [RGL1025]
